Consider 23 compounds from patent US10975078B2, “Fused indazole pyridone compounds as antivirals” (priority 2017, dated 2021).

One test deals with HBsAg secretion, HepG2-Clone42 cells (Tet-inducible HBV-expressing, HBV ayw strain). Put plainly: HBsAg assay (HBsAg ELISA, secreted HBV sAg from HepG2-Clone42 cells). Conditions: Hepatitis B virus, read-out: HBsAg (nM), EC50 = concentration at which HBsAg secretion was reduced 50% compared to DMSO control. The class given is cell-based. Here is the method:
HepG2-Clone42, a Tet-inducible HBV-expressing cell line with a stably integrated 1.3 mer copy of the HBV ayw strain, was generated based on the Tet-inducible HepAD38 cell line with slight modifications. Ladner S K, et al., Antimicrobial Agents and Chemotherapy. 41(8):1715-1720 (1997). HepG2-Clone42 cells were cultured in DMEM/F-12+Glutamax™ (Life Technologies, Carlsbad, Calif., USA), supplemented with 10% fetal bovine serum (Life Technologies), G-418 (Corning, Manassas, Va., USA) at a final concentration of 0.5 mg/mL, and 5 μg/mL Doxycycline (Sigma, St. Louis, Mo., USA) and maintained in 5% CO2 at 37° C.
HepG2-Clone42 cells were seeded into black clear-bottom 96-well plates at a concentration of 6.0×10^4 cells/well. 24 hours post-seeding, the cells were treated with 200 μl/well of media containing five-fold serial dilutions of compounds in DMSO. DMSO alone was used as the no drug control. The final DMSO concentration in all wells was 0.5%.
The HBsAg ELISA kit (Alpha Diagnostic International, San Antonio, Tex., USE, Catalog #4110) was used to determine the level (semi-quantitative) of secreted HBV sAg. The HBSAg ELISA assay was performed following the manufacturer's protocol as described.
Step 1. Pipet 100 μL each of compound or DMSO treated samples into HBsAg ELISA plates. Seal plates and incubate at room temp for 60 minutes.
Step 2. Aspirate samples and wash three times with Wash Buffer. Dispense 100 μL of antibody-HRP conjugate to each well. Incubate at room temp for 30 minutes.
Step 3. Aspirate samples and wash three times with Wash Buffer. Add 100 μL of TMB Substrate to all wells and incubate 15 minutes at room temp.
Step 4. Dispense 100 μL of Stop Solution to each well. Measure absorbance of ELISA plate at 450 nm.
Dose-response curves were generated and the EC50 value was defined as the compound concentration at which HBsAg secretion was reduced 50% compared to the DMSO control.
EC50 values were determined as follows:
Determine the percent of HBsAg secretion inhibition. Calculate the percent inhibition on of HBsAg secretion inhibition using the following equation: […]
where XC is the absorbance signal from compound-treated well; MB is average absorbance signal (background signal) for column 12 (no cells+HBsAg ELISA sample buffer) and MD is average absorbance signal from DMSO-treated wells. Then calculate EC50 values by non-linear regression using a four parameter curve logistic equation.
The curve fit model employed is XLFit Dose Response One Site Model 204: y=(A+((B−A)/(1+(10^((C−x)*D))))) where A is the minimum y value, B is the maximum y value, C is the log EC50 value, and D is the slope factor. In the following table+≥100 nM; 100 nM>++≥1 nM; 1 nM>+++
As for `CC(C)(C)C1Cn2nc3c(OC4CCNCC4)cccc3c2-c2cc(=O)c(C(=O)O)cn21` (racemic) [Example 2.27, 6-(tert-butyl)-2-oxo-10-(piperidin-4-yloxy)-6,7-dihydro-2H-pyrido[2′,1′:3,4]pyrazino[1,2-b]indazole-3-carboxylic Acid], the EC50 is more than 100 nM.
For the compound `COCCOCCCOc1cccc2c3n(nc12)CC(C(C)(C)C)n1cc(C(=O)O)c(=O)cc1-3` (racemic) [Example 2.21, 6-(tert-butyl)-10-(3-(2-methoxyethoxy)propoxy)-2-oxo-6,7-dihydro-2H-pyrido[2′,1′:3,4]pyrazino[1,2-b]indazole-3-carboxylic Acid], the EC50 was less than 1 nM.
On the same count and under the same terms, with `CC(C)COc1cccc2c3n(nc12)CC(C(C)(C)C)n1cc(C(=O)O)c(=O)cc1-3` (racemic) [Example 2.16, 6-(tert-butyl)-10-isobutoxy-2-oxo-6,7-dihydro-2H-pyrido[2′,1′:3,4]pyrazino[1,2-b]indazole-3-carboxylic Acid] the figure was less than 1 nM.
As to `CCCOc1cccc2c3n(nc12)CC(C(C)(C)C)n1cc(C(=O)O)c(=O)cc1-3` (racemic) [Example 2.11, 6-(tert-butyl)-2-oxo-10-propoxy-6,7-dihydro-2H-pyrido[2′,1′:3,4]pyrazino[1,2-b]indazole-3-carboxylic Acid], the EC50 was less than 1 nM.
On the same count and under the same terms, with `CC(C)(C)C1Cn2nc3c(OCC4CCOC4)cccc3c2-c2cc(=O)c(C(=O)O)cn21` (racemic) [Example 2.8, 6-(tert-butyl)-2-oxo-10-((tetrahydrofuran-3-yl)methoxy)-6,7-dihydro-2H-pyrido[2′,1′:3,4]pyrazino[1,2-b]indazole-3-carboxylic Acid] the figure was less than 1 nM.
Turning to `CC(C)(C)C1Cn2nc3c(OCC4CC(F)(F)C4)cccc3c2-c2cc(=O)c(C(=O)O)cn21` (racemic) [Example 2.39, 6-(tert-butyl)-10-((3,3-difluorocyclobutyl)methoxy)-2-oxo-6,7-dihydro-2H-pyrido[2′,1′:3,4]pyrazino[1,2-b]indazole-3-carboxylic Acid], the EC50 is less than 1 nM.
On the same count and under the same terms, in the case of `COCC(C)Oc1cccc2c3n(nc12)CC(C(C)(C)C)n1cc(C(=O)O)c(=O)cc1-3` (single isomer, unassigned) [Example 2.35-I, 6-(tert-butyl)-10-((1-methoxypropan-2-yl)oxy)-2-oxo-6,7-dihydro-2H-pyrido[2′,1′:3,4]pyrazino[1,2-b]indazole-3-carboxylic Acid] it was 1 to 100 nM.
The same measure, in the same setting: with `CC(C)(C)C1Cn2nc3c(OCC(F)F)cccc3c2-c2cc(=O)c(C(=O)O)cn21` (racemic) [Example 2.10, 6-(tert-butyl)-10-(2,2-difluoroethoxy)-2-oxo-6,7-dihydro-2H-pyrido[2′,1′:3,4]pyrazino[1,2-b]indazole-3-carboxylic Acid] the figure was less than 1 nM.
Still for that read-out and setting: in the case of `CC(C)(C)C1Cn2nc3c(OC[C@@H]4CCC(=O)N4)cccc3c2-c2cc(=O)c(C(=O)O)cn21` (single isomer, unassigned) [Example 2.33-I] it was more than 100 nM.
`CC(C)(C)C1Cn2nc3c(OCC4CCCO4)cccc3c2-c2cc(=O)c(C(=O)O)cn21` (centres unmarked) [Example 2.25, 6-(tert-butyl)-2-oxo-10-((tetrahydrofuran-2-yl)methoxy)-6,7-dihydro-2H-pyrido[2′,1′:3,4]pyrazino[1,2-b]indazole-3-carboxylic Acid]: the EC50 was 1 to 100 nM.
As to `CC(C)(C)C1Cn2nc3c(OCCC(F)(F)F)cccc3c2-c2cc(=O)c(C(=O)O)cn21` (racemic) [Example 2.40, 6-(tert-butyl)-2-oxo-10-(3,3,3-trifluoropropoxy)-6,7-dihydro-2H-pyrido[2′,1′:3,4]pyrazino[1,2-b]indazole-3-carboxylic Acid], the EC50 is less than 1 nM.
Regarding `CC(C)(C)C1Cn2nc3c(OCC(=O)O)cccc3c2-c2cc(=O)c(C(=O)O)cn21` (racemic) [Example 2.23, 6-(tert-butyl)-10-(carboxymethoxy)-2-oxo-6,7-dihydro-2H-pyrido[2′,1′:3,4]pyrazino[1,2-b]indazole-3-carboxylic Acid], the EC50 is 1 to 100 nM.
The same measure, in the same setting: with `COc1ccc2nn3c(c2c1)-c1cc(=O)c(C(=O)O)cn1C(C(C)(C)C)C3` (single isomer, unassigned) [Example 1.3-II, 6-(tert-butyl)-12-methoxy-2-oxo-6,7-dihydro-2H-pyrido[2′,1′:3,4]pyrazino[1,2-b]indazole-3-carboxylic acid] the figure was 1 to 100 nM.
On the same count and under the same terms, in the case of `CC(C)(C)C1Cn2nc3c(OCC4CCOCC4)cccc3c2-c2cc(=O)c(C(=O)O)cn21` (racemic) [Example 2.44, 6-(tert-butyl)-2-oxo-10-((tetrahydro-2H-pyran-4-yl)methoxy)-6,7-dihydro-2H-pyrido[2′,1′:3,4]pyrazino[1,2-b]indazole-3-carboxylic Acid] it was 1 to 100 nM; in that of `CC(C)(C)C1Cn2nc3c(OC4CCOCC4)cccc3c2-c2cc(=O)c(C(=O)O)cn21` (racemic) [Example 2.38, 6-(tert-butyl)-2-oxo-10-((tetrahydro-2H-pyran-4-yl)oxy)-6,7-dihydro-2H-pyrido[2′,1′:3,4]pyrazino[1,2-b]indazole-3-carboxylic Acid], 1 to 100 nM.
Turning to `CC(C)(C)C1Cn2nc3c(OCC4COCCO4)cccc3c2-c2cc(=O)c(C(=O)O)cn21` (racemic) [Example 2.22, 10-((1,4-dioxan-2-yl)methoxy)-6-(tert-butyl)-2-oxo-6,7-dihydro-2H-pyrido[2′,1′:3,4]pyrazino[1,2-b]indazole-3-carboxylic Acid], the EC50 lay in the range of 1 to 100 nM.
With `CC(C)(C)C1Cn2nc3c(OCC4CNC4)cccc3c2-c2cc(=O)c(C(=O)O)cn21` (racemic) [Example 2.32, 10-(azetidin-3-ylmethoxy)-6-(tert-butyl)-2-oxo-6,7-dihydro-2H-pyrido[2′,1′:3,4]pyrazino[1,2-b]indazole-3-carboxylic Acid], the EC50 is more than 100 nM.

Staying with this test, now noted: read-out: HBsAg, EC50 = concentration at which HBsAg secretion was reduced 50% compared to DMSO control.
Regarding `COc1cccc2c3n(nc12)CC(C(C)(C)CO)n1cc(C(=O)O)c(=O)cc1-3` (single isomer, unassigned) [Example 3.1-II, 6-(1-hydroxy-2-methylpropan-2-yl)-10-methoxy-2-oxo-6,7-dihydro-2H-pyrido[2′,1′:3,4]pyrazino[1,2-b]indazole-3-carboxylic Acid], the EC50 was 1 to 100 nM.
Same read-out and setting: with `COc1cccc2c3n(nc12)CC(C(C)(C)C)n1cc(C(=O)O)c(=O)cc1-3` (single isomer, unassigned) [Example 1.1-I, 6-(tert-butyl)-10-methoxy-2-oxo-6,7-dihydro-2H-pyrido[2′,1′:3,4]pyrazino[1,2-b]indazole-3-carboxylic acid] the figure was less than 1 nM; with `COCCOc1cccc2c3n(nc12)CC(C(C)(C)C)n1cc(C(=O)O)c(=O)cc1-3` (single isomer, unassigned) [Example 2.2-II, 6-(tert-butyl)-10-(2-methoxyethoxy)-2-oxo-6,7-dihydro-2H-pyrido[2′,1′:3,4]pyrazino[1,2-b]indazole-3-carboxylic Acid], less than 1 nM; with `COCCCOc1cccc2c3n(nc12)CC(C(C)(C)COC)n1cc(C(=O)O)c(=O)cc1-3` (single isomer, unassigned) [Example 7.1-I, 6-(1-methoxy-2-methylpropan-2-yl)-10-(3-methoxypropoxy)-2-oxo-6,7-dihydro-2H-pyrido[2′,1′:3,4]pyrazino[1,2-b]indazole-3-carboxylic Acid], more than 100 nM.
With `COCCCOc1cccc2c3n(nc12)CC(C(C)(C)COC)n1cc(C(=O)O)c(=O)cc1-3` (single isomer, unassigned) [Example 7.1-II, 6-(1-methoxy-2-methylpropan-2-yl)-10-(3-methoxypropoxy)-2-oxo-6,7-dihydro-2H-pyrido[2′,1′:3,4]pyrazino[1,2-b]indazole-3-carboxylic Acid], the EC50 was less than 1 nM.
On the same count and under the same terms, in the case of `CC(C)(C)C1Cn2nc3c(OC[C@H]4CCC(=O)N4)cccc3c2-c2cc(=O)c(C(=O)O)cn21` (single isomer, unassigned) [Example 2.34-II] it was more than 100 nM.
